Results: patent publication US12077503B2, “Substituted cyclic amides and their use as herbicides” (FMC CORPORATION, priority 2015, dated 2024)

What was measured:
Format in all cases: in vivo
[1] = test system: barnyardgrass (Echinochloa crus-galli); test: Test G Post-Emergence Protocol; details: Echinochloa crus-galli, post-emergence, 312 h, read-out: Barnyardgrass damage rating
Summary of the method: (§1)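 Damage was rated 13 days after treatment from 0 (none) to 100 (plant killed). Compound was applied as a spray at 15.625, 62.5 or 250 g/ha in 50:50 acetone/water containing 0.5% Tween 20, onto 8-day-old potted plants kept in a glasshouse (24/16 °C, 14 h light, 65% humidity).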

[2] = test system: giant foxtail (Setaria faberi); test: Test G Post-Emergence Protocol; details: Setaria faberi, post-emergence, 312 h, read-out: Foxtail, Giant damage rating
Summary of the method: as §1

[3] = test system: ivy-leaved morning glory (Ipomoea hederacea); test: Test G Post-Emergence Protocol; details: Ipomoea, post-emergence, 312 h, read-out: Morningglory, Ivy-leaved damage rating
Summary of the method: as §1

[4] = test system: redroot pigweed (Amaranthus retroflexus); test: Test G Post-Emergence Protocol; details: Amaranthus retroflexus, post-emergence, 312 h, read-out: Pigweed, Redroot damage rating
Summary of the method: as §1

[5] = test system: velvetleaf (Abutilon theophrasti); test: Test G Post-Emergence Protocol; details: Abutilon theophrasti, post-emergence, 312 h, read-out: Velvetleaf damage rating
Summary of the method: as §1

[6] = test system: corn (Zea mays); test: Test G Post-Emergence Protocol; details: Zea mays, post-emergence, 312 h, read-out: Corn damage rating
Summary of the method: as §1

[7] = test system: barnyardgrass (Echinochloa crus-galli); test: Test G Pre-Emergence Protocol; details: Echinochloa crus-galli, pre-emergence, 312 h, evaluated after 13 days
Summary of the method: (§2)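 Visual injury (0–100) at day 13 after a single pre-emergence spray. Rates: 15.625, 62.5, 250 g/ha in acetone–water 50:50 with 0.5% Tween 20. Growth conditions: 24/16° C, 14 h light, 65% humidity.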

[8] = test system: giant foxtail (Setaria faberi); test: Test G Pre-Emergence Protocol; details: Setaria faberi, pre-emergence, 312 h, evaluated after 13 days
Summary of the method: as §2

[9] = test system: ivy-leaved morning glory (Ipomoea hederacea); test: Test G Pre-Emergence Protocol; details: Ipomoea, pre-emergence, 312 h, evaluated after 13 days
Summary of the method: as §2

[10] = test system: redroot pigweed (Amaranthus retroflexus); test: Test G Pre-Emergence Protocol; details: Amaranthus retroflexus, pre-emergence, 312 h, evaluated after 13 days
Summary of the method: as §2

[11] = test system: velvetleaf (Abutilon theophrasti); test: Test G Pre-Emergence Protocol; details: Abutilon theophrasti, pre-emergence, 312 h, evaluated after 13 days
Summary of the method: as §2

[12] = test system: corn (Zea mays); test: Test G Pre-Emergence Protocol; details: Zea mays, pre-emergence, 312 h, evaluated after 13 days
Summary of the method: as §2

[13] = 15.625 g ai/ha, evaluated after 13 days (100=total damage to plant; 0=no damage to plant)
[14] = 62.5 g ai/ha, evaluated after 13 days, 100=total damage to plant, 0=no damage to plant
[15] = 250 g ai/ha, evaluated after 13 days, 100=total damage to plant, 0=no damage to plant

With `CN1C[C@H](c2ccc(C(F)F)cc2)[C@@H](C(=O)Nc2cnccc2C(F)(F)F)C1=O` (racemic) [Compound 1743] as the molecule, how does the pest or weed control at 15.625 g/ha [1, 13] read?
Its pest or weed control at 15.625 g/ha is 0%.

What about the pest or weed control at 62.5 g/ha [1, 14] of the same molecule?
The pest or weed control at 62.5 g/ha was 0%.

What about the pest or weed control at 250 g/ha [1, 15] of the same molecule?
The pest or weed control at 250 g/ha was 80%.

And the pest or weed control at 15.625 g/ha [2, 13]?
The pest or weed control at 15.625 g/ha was 20%.

What about the pest or weed control at 62.5 g/ha [2, 14] of the same molecule?
The pest or weed control at 62.5 g/ha was 70%.

What about the pest or weed control at 15.625 g/ha [3, 13] of the same molecule?
Its pest or weed control at 15.625 g/ha is 0%.

And the pest or weed control at 62.5 g/ha [3, 14]?
The pest or weed control at 62.5 g/ha was 0%.

What about the pest or weed control at 250 g/ha [3, 15] of the same molecule?
The pest or weed control at 250 g/ha was 30%.

And the pest or weed control at 15.625 g/ha [4, 13]?
The pest or weed control at 15.625 g/ha was 0%.

What about the pest or weed control at 62.5 g/ha [4, 14] of the same molecule?
The pest or weed control at 62.5 g/ha was 0%.

What about the pest or weed control at 250 g/ha [4, 15] of the same molecule?
Its pest or weed control at 250 g/ha is 50%.

What about the pest or weed control at 15.625 g/ha [5, 13] of the same molecule?
Its pest or weed control at 15.625 g/ha is 0%.

What about the pest or weed control at 62.5 g/ha [5, 14] of the same molecule?
Its pest or weed control at 62.5 g/ha is 0%.

And the pest or weed control at 250 g/ha [5, 15]?
Its pest or weed control at 250 g/ha is 50%.

And the plant injury at 15.625 g/ha [6, 13]?
Its plant injury at 15.625 g/ha is 0%.

And the plant injury at 62.5 g/ha [6, 14]?
Its plant injury at 62.5 g/ha is 0%.

What about the plant injury at 250 g/ha [6, 15] of the same molecule?
Its plant injury at 250 g/ha is 60%.

What about the pest or weed control at 15.625 g/ha ([7]; 15.625 g ai/ha, read-out: Barnyardgrass damage rating (100=total damage to plant; 0=no damage to plant)) of the same molecule?
The pest or weed control at 15.625 g/ha was 30%.

And the pest or weed control at 62.5 g/ha ([7]; 62.5 g ai/ha, 100=total damage to plant, 0=no damage to plant, read-out: Barnyardgrass damage rating)?
The pest or weed control at 62.5 g/ha was 40%.

And the pest or weed control at 250 g/ha ([7]; 250 g ai/ha, read-out: Barnyardgrass damage rating (100=total damage to plant; 0=no damage to plant))?
Its pest or weed control at 250 g/ha is 80%.

And the pest or weed control at 15.625 g/ha ([8]; 15.625 g ai/ha, read-out: Foxtail, Giant damage rating (100=total damage to plant; 0=no damage to plant))?
The pest or weed control at 15.625 g/ha was 30%.

What about the pest or weed control at 62.5 g/ha ([8]; 62.5 g ai/ha, 100=total damage to plant, 0=no damage to plant, read-out: Foxtail, Giant damage rating) of the same molecule?
Its pest or weed control at 62.5 g/ha is 90%.

What about the pest or weed control at 250 g/ha ([8]; 250 g ai/ha, read-out: Foxtail, Giant damage rating (100=total damage to plant; 0=no damage to plant)) of the same molecule?
The pest or weed control at 250 g/ha was 90%.

What about the pest or weed control at 15.625 g/ha ([9]; 15.625 g ai/ha, read-out: Morningglory, Ivy-leaved damage rating (100=total damage to plant; 0=no damage to plant)) of the same molecule?
Its pest or weed control at 15.625 g/ha is 0%.

What about the pest or weed control at 62.5 g/ha ([9]; 62.5 g ai/ha, 100=total damage to plant, 0=no damage to plant, read-out: Morningglory, Ivy-leaved damage rating) of the same molecule?
The pest or weed control at 62.5 g/ha was 60%.

And the pest or weed control at 250 g/ha ([9]; 250 g ai/ha, read-out: Morningglory, Ivy-leaved damage rating (100=total damage to plant; 0=no damage to plant))?
Its pest or weed control at 250 g/ha is 70%.

And the pest or weed control at 15.625 g/ha ([10]; 15.625 g ai/ha, read-out: Pigweed, Redroot damage rating (100=total damage to plant; 0=no damage to plant))?
The pest or weed control at 15.625 g/ha was 20%.

And the pest or weed control at 62.5 g/ha ([10]; 62.5 g ai/ha, 100=total damage to plant, 0=no damage to plant, read-out: Pigweed, Redroot damage rating)?
The pest or weed control at 62.5 g/ha was 60%.

What about the pest or weed control at 250 g/ha ([10]; 250 g ai/ha, read-out: Pigweed, Redroot damage rating (100=total damage to plant; 0=no damage to plant)) of the same molecule?
Its pest or weed control at 250 g/ha is 80%.

What about the pest or weed control at 15.625 g/ha ([11]; 15.625 g ai/ha, read-out: Velvetleaf damage rating (100=total damage to plant; 0=no damage to plant)) of the same molecule?
The pest or weed control at 15.625 g/ha was 10%.

What about the pest or weed control at 62.5 g/ha ([11]; 62.5 g ai/ha, 100=total damage to plant, 0=no damage to plant, read-out: Velvetleaf damage rating) of the same molecule?
Its pest or weed control at 62.5 g/ha is 50%.

And the pest or weed control at 250 g/ha ([11]; 250 g ai/ha, read-out: Velvetleaf damage rating (100=total damage to plant; 0=no damage to plant))?
The pest or weed control at 250 g/ha was 80%.

And the plant injury at 15.625 g/ha ([12]; 15.625 g ai/ha, read-out: Corn damage rating (100=total damage to plant; 0=no damage to plant))?
Its plant injury at 15.625 g/ha is 30%.

And the plant injury at 62.5 g/ha ([12]; 62.5 g ai/ha, 100=total damage to plant, 0=no damage to plant, read-out: Corn damage rating)?
Its plant injury at 62.5 g/ha is 20%.

What about the plant injury at 250 g/ha ([12]; 250 g ai/ha, read-out: Corn damage rating (100=total damage to plant; 0=no damage to plant)) of the same molecule?
The plant injury at 250 g/ha was 80%.
